How the values were obtained:
[1] = target: GDP-bound NRAS wild-type protein (Homo sapiens, UniProt P01111); assay: Binding to NRAS by surface plasmon resonance (SPR), Single Cycle Kinetics; conditions: SPR, GDP-bound NRAS wild-type protein vs GDP-bound KRAS wild-type protein
[2] = target: GDP-bound HRAS wild-type protein (Homo sapiens, UniProt P01112); assay: Binding to HRAS by surface plasmon resonance (SPR), Single Cycle Kinetics; conditions: SPR, GDP-bound HRAS wild-type protein vs GDP-bound KRAS wild-type protein
Sequence of GDP-bound HRAS wild-type protein (P01112 whole entry): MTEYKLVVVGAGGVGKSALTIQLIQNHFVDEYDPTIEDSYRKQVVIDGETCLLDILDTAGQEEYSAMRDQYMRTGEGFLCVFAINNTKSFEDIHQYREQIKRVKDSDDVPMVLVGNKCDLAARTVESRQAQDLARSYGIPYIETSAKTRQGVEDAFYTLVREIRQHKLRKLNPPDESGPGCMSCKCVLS

Sequence of GDP-bound NRAS wild-type protein (P01111 whole entry): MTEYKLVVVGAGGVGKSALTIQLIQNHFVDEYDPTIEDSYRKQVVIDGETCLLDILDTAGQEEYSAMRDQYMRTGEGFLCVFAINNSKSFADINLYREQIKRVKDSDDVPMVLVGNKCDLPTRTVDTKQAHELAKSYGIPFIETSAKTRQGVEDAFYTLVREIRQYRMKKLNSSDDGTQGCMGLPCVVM

Structure (SMILES) | NRAS/KRAS (ratio of KD value for NRAS to KD value for KRAS) [1] | HRAS/KRAS (ratio of KD value for HRAS to KD value for KRAS) [2]
C#CC[C@H]1C(=O)N[C@@H]([C@@H](C)CC)C(=O)N(C)CC(=O)N(C)[C@H]2C/C=C\CCN(C2=O)[C@@H](Cc2ccc(C(F)(F)F)cc2)C(=O)N(C)CC(=O)N[C@@H](CCc2ccc(C(F)(F)F)c(OC)c2)C(=O)N2C[C@@H](C)C[C@H]2C(=O)NC2(CC(C)(C)C2)C(=O)N(C)[C@@H](C2CCCC2)C(=O)N(C)[C@H](C(=O)N(C)CCC)CC(=O)N1C [PP2057] | A (a compound having 10 or more and less than 20 is denoted as A) | A (a compound having 10 or more and less than 20 is denoted as A)
C=CCN1CC(=O)N(C)[C@H]2C/C=C\CCN(C2=O)[C@@H](Cc2ccc(C)cc2)C(=O)N(C)CC(=O)N[C@@H](CCc2ccc(C(F)(F)F)c(OC)c2)C(=O)N2C[C@H](OCC)C[C@H]2C(=O)NC2(CC(C)(C)C2)C(=O)N(C)[C@@H](C2CCCC2)C(=O)N(C)[C@H](C(=O)N(C)C)CC(=O)N(C)[C@@H](CC(C)C)C(=O)N[C@@H]([C@@H](C)CC)C1=O [PP2058] | A (a compound having 10 or more and less than 20 is denoted as A) | A (a compound having 10 or more and less than 20 is denoted as A)
C#CC[C@H]1C(=O)N[C@@H]([C@@H](C)CC)C(=O)N(C)CC(=O)N(C)[C@H]2C/C=C\CCN(C2=O)[C@@H](Cc2ccc(C(F)(F)F)cc2)C(=O)N(C)CC(=O)N[C@@H](CCc2ccc(C(F)(F)F)c(OC)c2)C(=O)N2C[C@@H](C)C[C@H]2C(=O)NC2(CCC2)C(=O)N(C)[C@@H](C2CCCC2)C(=O)N(C)[C@H](C(=O)N(C)CCC)CC(=O)N1C [PP2063] | AA (a compound having 20 or more is denoted as AA) | A (a compound having 10 or more and less than 20 is denoted as A)
CC[C@H](C)[C@@H]1NC(=O)[C@H](C2CCC2)N(C)C(=O)C[C@@H](C(=O)N(C)CC)N(C)C(=O)[C@H](C2CCCC2)N(C)C(=O)C2(CCC2)NC(=O)[C@@H]2C[C@H](C)CN2C(=O)[C@H](CCc2cc(F)c(C(F)(F)F)c(F)c2)NC(=O)CN(C)C(=O)[C@H](Cc2ccc(C(F)(F)F)cc2)N2CC/C=C\C[C@@H](C2=O)N(C)C(=O)CN(C)C1=O [PP2082] | AA (a compound having 20 or more is denoted as AA) | A (a compound having 10 or more and less than 20 is denoted as A)
CCC[C@H]1C(=O)N[C@@H]([C@@H](C)CC)C(=O)N(C2CC2)CC(=O)N(C)[C@H]2C/C=C\CCN(C2=O)[C@@H](Cc2ccc(C)cc2)C(=O)N(C)CC(=O)N[C@@H](CCc2ccc(C(F)(F)F)c(OC)c2)C(=O)N2C[C@H](OCC)C[C@H]2C(=O)NC2(CC(C)(C)C2)C(=O)N(C)[C@@H](C2CCCC2)C(=O)N(C)[C@H](C(=O)N(C)C)CC(=O)N1C [PP2097] | A (a compound having 10 or more and less than 20 is denoted as A) | A (a compound having 10 or more and less than 20 is denoted as A)
C#CCN1CC(=O)N(C)[C@H]2C/C=C\CCN(C2=O)[C@@H](Cc2ccc(C)cc2)C(=O)N(C)CC(=O)N[C@@H](CCc2ccc(C(F)(F)F)c(OC)c2)C(=O)N2C[C@H](OCC)C[C@H]2C(=O)NC2(CC(C)(C)C2)C(=O)N(C)[C@@H](C2CCCC2)C(=O)N(C)[C@H](C(=O)N(C)C)CC(=O)N(C)[C@@H](CCC)C(=O)N[C@@H]([C@@H](C)CC)C1=O [PP2099] | A (a compound having 10 or more and less than 20 is denoted as A) | A (a compound having 10 or more and less than 20 is denoted as A)
CCC[C@H]1C(=O)N[C@@H]([C@@H](C)CC)C(=O)N(CCC)CC(=O)N(C)[C@H]2C/C=C\CCN(C2=O)[C@@H](Cc2ccc(C)cc2)C(=O)N(C)CC(=O)N[C@@H](CCc2cc(F)c(C(F)(F)F)c(F)c2)C(=O)N2C[C@H](OCC)C[C@H]2C(=O)NC2(CC(C)(C)C2)C(=O)N(C)[C@@H](C2CCCC2)C(=O)N(C)[C@H](C(=O)N(C)C)CC(=O)N1C [PP2108] | A (a compound having 10 or more and less than 20 is denoted as A) | A (a compound having 10 or more and less than 20 is denoted as A)
CCO[C@@H]1C[C@H]2C(=O)NC3(CC(C)(C)C3)C(=O)N(C)[C@@H](C(CC)CC)C(=O)N(C)[C@H](C(=O)N3CCCC3)CC(=O)N(C)[C@@H](COC)C(=O)N[C@@H]([C@@H](C)CC)C(=O)N(C)CC(=O)N(C)[C@H]3C/C=C\CCN(C3=O)[C@@H](Cc3ccc(C)cc3)C(=O)N(C)CC(=O)N[C@@H](CCc3cc(F)c(C(F)(F)F)c(F)c3)C(=O)N2C1 [PP2139] | AA (a compound having 20 or more is denoted as AA) | A (a compound having 10 or more and less than 20 is denoted as A)
CCO[C@@H]1C[C@H]2C(=O)NC3(CC(C)(C)C3)C(=O)N(C)[C@@H](C(CC)CC)C(=O)N(C)[C@H](C(=O)N(C)C)CC(=O)N(C)[C@@H](CC(C)C)C(=O)N[C@@H]([C@@H](C)CC)C(=O)N(C)CC(=O)N(C)[C@H]3C/C=C\CCN(C3=O)[C@@H](Cc3ccc(C)cc3)C(=O)N(C)CC(=O)N[C@@H](CCc3cc(F)c(C(F)(F)F)c(F)c3)C(=O)N2C1 [PP2141] | A (a compound having 10 or more and less than 20 is denoted as A) | A (a compound having 10 or more and less than 20 is denoted as A)
CCO[C@@H]1C[C@H]2C(=O)NC3(CC(C)(C)C3)C(=O)N(C)[C@@H](C(CC)CC)C(=O)N(C)[C@H](C(=O)N(C)C)CC(=O)N(C)[C@@H](CC3CC3)C(=O)N[C@@H]([C@@H](C)CC)C(=O)N(C)CC(=O)N(C)[C@H]3C/C=C\CCN(C3=O)[C@@H](Cc3ccc(C)cc3)C(=O)N(C)CC(=O)N[C@@H](CCc3ccc(C(F)(F)F)c(Cl)c3)C(=O)N2C1 [PP2142] | AA (a compound having 20 or more is denoted as AA) | A (a compound having 10 or more and less than 20 is denoted as A)
CCO[C@@H]1C[C@H]2C(=O)NC3(CC(C)(C)C3)C(=O)N(C)[C@@H](C(CC)CC)C(=O)N(C)[C@H](C(=O)N(C)C)CC(=O)N(C)[C@@H](CC(C)C)C(=O)N[C@@H]([C@@H](C)CC)C(=O)N(C)CC(=O)N(C)[C@H]3C/C=C\CCN(C3=O)[C@@H](Cc3ccc(C)cc3)C(=O)N(C)CC(=O)N[C@@H](CCc3ccc(C(F)(F)F)c(Cl)c3)C(=O)N2C1 [PP2148] | A (a compound having 10 or more and less than 20 is denoted as A) | A (a compound having 10 or more and less than 20 is denoted as A)
CCO[C@@H]1C[C@H]2C(=O)NC3(CC(C)(C)C3)C(=O)N(C)[C@@H](C(CC)CC)C(=O)N(C)[C@H](C(=O)N(C)C)CC(=O)N(C)[C@@H](C(C)C)C(=O)N[C@@H]([C@@H](C)CC)C(=O)N(C)CC(=O)N(C)[C@H]3C/C=C\CCN(C3=O)[C@@H](Cc3ccc(C)cc3)C(=O)N(C)CC(=O)N[C@@H](CCc3cc(F)c(C(F)(F)F)c(F)c3)C(=O)N2C1 [PP2153] | A (a compound having 10 or more and less than 20 is denoted as A) | A (a compound having 10 or more and less than 20 is denoted as A)
CCO[C@@H]1C[C@H]2C(=O)NC3(CC(C)(C)C3)C(=O)N(C)[C@@H](C(CC)CC)C(=O)N(C)[C@H](C(=O)N(C)C)CC(=O)N(C)[C@@H](C(C)C)C(=O)N[C@@H]([C@@H](C)CC)C(=O)N(C)CC(=O)N(C)[C@H]3C/C=C\CCN(C3=O)[C@@H](Cc3ccc(C)cc3)C(=O)N(C)CC(=O)N[C@@H](CCc3ccc(C(F)(F)F)c(Cl)c3)C(=O)N2C1 [PP2158] | AA (a compound having 20 or more is denoted as AA) | A (a compound having 10 or more and less than 20 is denoted as A)
CCC[C@H]1C(=O)N[C@@H]([C@@H](C)CC)C(=O)N(C)CC(=O)N(C)[C@H]2C/C=C\CCN(C2=O)[C@@H](Cc2ccc(C(F)(F)F)cc2)C(=O)N(C)CC(=O)N[C@@H](CCc2ccc(Cl)c(Cl)c2)C(=O)N2C[C@H](OCC)C[C@H]2C(=O)NC2(CC(C)(C)C2)C(=O)N(C)[C@@H](C(CC)CC)C(=O)N(C)[C@H](C(=O)N(C)C)CC(=O)N1C [PP2175] | AA (a compound having 20 or more is denoted as AA) | A (a compound having 10 or more and less than 20 is denoted as A)
CCO[C@@H]1C[C@H]2C(=O)NC3(CC(C)(C)C3)C(=O)N(C)[C@@H](C(CC)CC)C(=O)N(C)[C@H](C(=O)N(C)C)CC(=O)N(C)[C@@H](CC)C(=O)N[C@@H]([C@@H](C)CC)C(=O)N(C)CC(=O)N(C)[C@H]3C/C=C\CCN(C3=O)[C@@H](Cc3ccc(C(F)(F)F)cc3)C(=O)N(C)CC(=O)N[C@@H](CCc3ccc(Cl)c(Cl)c3)C(=O)N2C1 [PP2179] | AA (a compound having 20 or more is denoted as AA) | A (a compound having 10 or more and less than 20 is denoted as A)
CCO[C@@H]1C[C@H]2C(=O)NC3(CC(C)(C)C3)C(=O)N(C)[C@@H](C(CC)CC)C(=O)N(C)[C@H](C(=O)N(C)C)CC(=O)N(C)[C@@H](CC3CC3)C(=O)N[C@@H]([C@@H](C)CC)C(=O)N(C)CC(=O)N(C)[C@H]3C/C=C\CCN(C3=O)[C@@H](Cc3ccc(C)cc3)C(=O)N(C)CC(=O)N[C@@H](CCc3ccc(Cl)c(Cl)c3)C(=O)N2C1 [PP2182] | AA (a compound having 20 or more is denoted as AA) | A (a compound having 10 or more and less than 20 is denoted as A)
CC[C@H](C)[C@@H]1NC(=O)[C@H](CC(C)C)N(C)C(=O)C[C@@H](C(=O)N(C)C)N(C)C(=O)[C@H](C2CCCC2)N(C)C(=O)C2(CCCC2)NC(=O)[C@@H]2C[C@@H](C)CN2C(=O)[C@H](CCc2cc(F)c(C(F)(F)F)c(F)c2)NC(=O)CN(C)C(=O)[C@H](Cc2ccc(C)cc2)N2CC/C=C\C[C@@H](C2=O)N(C)C(=O)CN(C)C1=O [PP2189] | A (a compound having 10 or more and less than 20 is denoted as A) | A (a compound having 10 or more and less than 20 is denoted as A)
